In patent US20030104507A1, “Method for detection of ATP” (priority 2001, published 2003):

Tested on: ATPase activity endogenous to L929 cell lysate
Assay: Detergent inhibition of ATPase endogenous to L929 cell lysate (ATP remaining by luciferase luminescence, 22° C.)
Type: biochemical
Set-up: key to Relative ATPase Activity, slope det/slope lysate: slope with detergent / slope without; ≥1.0 = 100% activity, 0.5 = 50%
Method in brief: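 L929 lysate (1.5×10^5 cells/ml, four freeze–thaw cycles) held with detergent at final 1.0, 0.5, 0.1 or 0.05% at 22° C; remaining ATP read over time with luciferase-luciferin reagent (100 μM luciferin, 10 mM MgSO4, pH 7.5). Relative ATPase activity = slope of log % ATP remaining vs time with detergent ÷ slope for lysate-only control.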

[1] = Example 2, 0.02% detergent, 5 min
[2] = Example 2, 0.02% detergent, 75 min
[3] = Example 2, 0.02% detergent, 169 min
[4] = Example 2, 0.02% detergent, 222 min
[5] = Example 2, 0.02% detergent, 260 min

SMILES: CCCCCCCCCCCC[N+](C)(C)Cc1ccccc1.[Br-] [BDDABr, Benzyldimethyldodecylammonium bromide]
- Relative ATPase Activity, slope det/slope lysate (0.02 percent detergent): 0.623
- Slope (log percent ATP remaining vs time in minutes) (0.02 percent detergent): −0.0039
- Average Relative Light Unit Values (0.05% detergent, 5 min): 7077.46 rlu
- Percent ATP Remaining (0.05% detergent, 5 min): 100%
- Average Relative Light Unit Values (0.05% detergent, 75 min): 4539.97 rlu
- Percent ATP Remaining (0.05% detergent, 75 min): 64.1%
- Average Relative Light Unit Values (0.05% detergent, 169 min): 2465.57 rlu
- Percent ATP Remaining (0.05% detergent, 169 min): 34.8%
- Average Relative Light Unit Values (0.05% detergent, 222 min): 1680.16 rlu
- Percent ATP Remaining (0.05% detergent, 222 min): 23.7%
- Average Relative Light Unit Values (0.05% detergent, 260 min): 1233.82 rlu
- Percent ATP Remaining (0.05% detergent, 260 min): 17.4%
- Relative ATPase Activity, slope det/slope lysate (0.05 percent detergent): 0.528
- Slope (log percent ATP remaining vs time in minutes) (0.05 percent detergent): −0.0030
- Average Relative Light Unit Values (0.1% detergent, 5 min): 7069.08 rlu
- Percent ATP Remaining (0.1% detergent, 5 min): 100%
- Average Relative Light Unit Values (0.1% detergent, 75 min): 5136.92 rlu
- Percent ATP Remaining (0.1% detergent, 75 min): 72.7%
- Average Relative Light Unit Values (0.1% detergent, 169 min): 3260.59 rlu
- Percent ATP Remaining (0.1% detergent, 169 min): 46.1%
- Average Relative Light Unit Values (0.1% detergent, 222 min): 2366.49 rlu
- Percent ATP Remaining (0.1% detergent, 222 min): 33.5%
- Average Relative Light Unit Values (0.1% detergent, 260 min): 1767.58 rlu
- Percent ATP Remaining (0.1% detergent, 260 min): 25.0%
- Relative ATPase Activity, slope det/slope lysate (0.10 percent detergent): 0.414
- Slope (log percent ATP remaining vs time in minutes) (0.10 percent detergent): −0.0023
- Average Relative Light Unit Values (0.5% detergent, 5 min): 122.47 rlu
- Percent ATP Remaining (0.5% detergent, 5 min): 100%
- Average Relative Light Unit Values (0.5% detergent, 75 min): 107.39 rlu
- Percent ATP Remaining (0.5% detergent, 75 min): 87.7%
- Average Relative Light Unit Values (0.5% detergent, 169 min): 93.92 rlu
- Percent ATP Remaining (0.5% detergent, 169 min): 76.2%
- Average Relative Light Unit Values (0.5% detergent, 222 min): 96.68 rlu
- Percent ATP Remaining (0.5% detergent, 222 min): 78.9%
- Average Relative Light Unit Values (0.5% detergent, 260 min): 101.11 rlu
- Percent ATP Remaining (0.5% detergent, 260 min): 82.6%
- Relative ATPase Activity, slope det/slope lysate (0.50 percent detergent): 0.064
- Slope (log percent ATP remaining vs time in minutes) (0.50 percent detergent): −0.0004
- Average Relative Light Unit Values (1.0% detergent, 5 min): 0.49 rlu
- Average Relative Light Unit Values (1.0% detergent, 75 min): 0.51 rlu
- Average Relative Light Unit Values (1.0% detergent, 169 min): 0.44 rlu
- Average Relative Light Unit Values (1.0% detergent, 222 min): 0.42 rlu
- Average Relative Light Unit Values (1.0% detergent, 260 min): 0.43 rlu
- Average Relative Light Unit Values [1]: 6215.32 rlu
- Percent ATP Remaining [1]: 100.00%
- Average Relative Light Unit Values [2]: 2686.49 rlu
- Percent ATP Remaining [2]: 48.53%
- Average Relative Light Unit Values [3]: 962.85 rlu
- Percent ATP Remaining [3]: 21.51%
- Average Relative Light Unit Values [4]: 604.47 rlu
- Percent ATP Remaining [4]: 13.18%
- Average Relative Light Unit Values [5]: 429.86 rlu
- Percent ATP Remaining [5]: 9.74%

SMILES: C[C@H](CCC(=O)[O-])[C@H]1CC[C@H]2[C@@H]3CC[C@@H]4C[C@H](O)CC[C@]4(C)[C@H]3C[C@H](O)[C@]12C.[Na+] [Deoxycholate, sodium deoxycholate]
- Relative ATPase Activity, slope det/slope lysate (0.02 percent detergent): 1.004
- Slope (log percent ATP remaining vs time in minutes) (0.02 percent detergent): −0.0064
- Average Relative Light Unit Values (0.05% detergent, 5 min): 5810.85 rlu
- Percent ATP Remaining (0.05% detergent, 5 min): 100%
- Average Relative Light Unit Values (0.05% detergent, 75 min): 1729.95 rlu
- Percent ATP Remaining (0.05% detergent, 75 min): 29.8%
- Average Relative Light Unit Values (0.05% detergent, 169 min): 738.1 rlu
- Percent ATP Remaining (0.05% detergent, 169 min): 12.7%
- Average Relative Light Unit Values (0.05% detergent, 222 min): 375.74 rlu
- Percent ATP Remaining (0.05% detergent, 222 min): 6.5%
- Average Relative Light Unit Values (0.05% detergent, 260 min): 188.59 rlu
- Percent ATP Remaining (0.05% detergent, 260 min): 3.2%
- Relative ATPase Activity, slope det/slope lysate (0.05 percent detergent): 0.984
- Slope (log percent ATP remaining vs time in minutes) (0.05 percent detergent): −0.0055
- Average Relative Light Unit Values (0.1% detergent, 5 min): 6422.34 rlu
- Percent ATP Remaining (0.1% detergent, 5 min): 100%
- Average Relative Light Unit Values (0.1% detergent, 75 min): 3730.44 rlu
- Percent ATP Remaining (0.1% detergent, 75 min): 57.9%
- Average Relative Light Unit Values (0.1% detergent, 169 min): 1627.81 rlu
- Percent ATP Remaining (0.1% detergent, 169 min): 25.3%
- Average Relative Light Unit Values (0.1% detergent, 222 min): 1028.42 rlu
- Percent ATP Remaining (0.1% detergent, 222 min): 16.0%
- Average Relative Light Unit Values (0.1% detergent, 260 min): 669.31 rlu
- Percent ATP Remaining (0.1% detergent, 260 min): 10.4%
- Relative ATPase Activity, slope det/slope lysate (0.10 percent detergent): 0.684
- Slope (log percent ATP remaining vs time in minutes) (0.10 percent detergent): −0.0038
- Average Relative Light Unit Values (0.5% detergent, 5 min): 3189.56 rlu
- Percent ATP Remaining (0.5% detergent, 5 min): 100%
- Average Relative Light Unit Values (0.5% detergent, 75 min): 2715.45 rlu
- Percent ATP Remaining (0.5% detergent, 75 min): 85.1%
- Average Relative Light Unit Values (0.5% detergent, 169 min): 2268.77 rlu
- Percent ATP Remaining (0.5% detergent, 169 min): 71.1%
- Average Relative Light Unit Values (0.5% detergent, 222 min): 2105.38 rlu
- Percent ATP Remaining (0.5% detergent, 222 min): 66.0%
- Average Relative Light Unit Values (0.5% detergent, 260 min): 1845.36 rlu
- Percent ATP Remaining (0.5% detergent, 260 min): 57.9%
- Relative ATPase Activity, slope det/slope lysate (0.50 percent detergent): 0.158
- Slope (log percent ATP remaining vs time in minutes) (0.50 percent detergent): −0.0009
- Average Relative Light Unit Values (1.0% detergent, 5 min): 3.98 rlu
- Average Relative Light Unit Values (1.0% detergent, 75 min): 3.63 rlu
- Average Relative Light Unit Values (1.0% detergent, 169 min): 3.63 rlu
- Average Relative Light Unit Values (1.0% detergent, 222 min): 3.15 rlu
- Average Relative Light Unit Values (1.0% detergent, 260 min): 3.24 rlu
- Average Relative Light Unit Values [1]: 5962.61 rlu
- Percent ATP Remaining [1]: 100.00%
- Average Relative Light Unit Values [2]: 1694.47 rlu
- Percent ATP Remaining [2]: 28.42%
- Average Relative Light Unit Values [3]: 368.11 rlu
- Percent ATP Remaining [3]: 6.17%
- Average Relative Light Unit Values [4]: 241.05 rlu
- Percent ATP Remaining [4]: 4.04%
- Average Relative Light Unit Values [5]: 135.25 rlu
- Percent ATP Remaining [5]: 2.27%
- times more ATP present in the sample after four hours when the detergent was present than when it was absent (SDS 0.05%, deoxycholate 0.5% and 0.1%): about three to about twenty
- concentrations which resulted in a 25% or greater decrease in the relative ATPase activity (compared to reactions in the absence of detergent): ≥ 0.1%
